This note sets out measurements from article PMC6850446, “In vivo inactivation of glycosidases by conduritol B epoxide and cyclophellitol as revealed by activity‐based protein profiling” (The Febs Journal, 2019).

Common to all, as to assay type: cell-based
In assay [1] the target is T1, GAA (lysosomal alpha-glucosidase) (Homo sapiens, UniProt P10253).
T1 construct: endogenous enzyme in HEK293T cells (GBA2-expressing line)
Briefly: intact cells treated, residual activity in lysate with 4MU-alpha-D-glucopyranoside. The following applies: 24 h treatment of intact HEK293T cells, assay pH 4.0. An excerpt:
intact cells treated, residual activity in lysate with 4MU-alpha-D-glucopyranoside on GAA (lysosomal alpha-glucosidase)

Assay [2] addresses T2, GBA3 (Homo sapiens, UniProt Q9H227).
T2 construct: human GBA3 overexpressed in HEK293T; expected 45-53 kDa
T2 sequence (Q9H227 1-469): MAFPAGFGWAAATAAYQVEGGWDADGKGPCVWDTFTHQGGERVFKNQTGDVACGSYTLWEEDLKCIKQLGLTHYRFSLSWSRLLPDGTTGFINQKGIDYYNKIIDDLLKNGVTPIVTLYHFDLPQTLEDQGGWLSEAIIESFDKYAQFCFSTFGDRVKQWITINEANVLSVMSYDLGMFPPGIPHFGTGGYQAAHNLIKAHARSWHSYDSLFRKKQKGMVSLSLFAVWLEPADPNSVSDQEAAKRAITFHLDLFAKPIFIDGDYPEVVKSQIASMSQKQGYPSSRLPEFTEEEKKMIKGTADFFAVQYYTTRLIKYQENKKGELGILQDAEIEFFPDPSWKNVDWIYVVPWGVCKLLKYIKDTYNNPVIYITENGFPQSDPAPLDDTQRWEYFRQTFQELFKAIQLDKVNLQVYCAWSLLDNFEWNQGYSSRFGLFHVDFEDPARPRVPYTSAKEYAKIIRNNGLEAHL
Kind of assay: intact cells treated, residual activity in lysate supernatant with 4MU-glucoside. An excerpt:
intact cells treated, residual activity in lysate supernatant with 4MU-glucoside on GBA3

In assay [3] the target is T3, GBA2 (nonlysosomal glucosylceramidase) (Homo sapiens, UniProt Q9HCG7).
T3 construct: human GBA2 stably expressed in HEK293T; 110 kDa on gel
T3 sequence (Q9HCG7 1-927): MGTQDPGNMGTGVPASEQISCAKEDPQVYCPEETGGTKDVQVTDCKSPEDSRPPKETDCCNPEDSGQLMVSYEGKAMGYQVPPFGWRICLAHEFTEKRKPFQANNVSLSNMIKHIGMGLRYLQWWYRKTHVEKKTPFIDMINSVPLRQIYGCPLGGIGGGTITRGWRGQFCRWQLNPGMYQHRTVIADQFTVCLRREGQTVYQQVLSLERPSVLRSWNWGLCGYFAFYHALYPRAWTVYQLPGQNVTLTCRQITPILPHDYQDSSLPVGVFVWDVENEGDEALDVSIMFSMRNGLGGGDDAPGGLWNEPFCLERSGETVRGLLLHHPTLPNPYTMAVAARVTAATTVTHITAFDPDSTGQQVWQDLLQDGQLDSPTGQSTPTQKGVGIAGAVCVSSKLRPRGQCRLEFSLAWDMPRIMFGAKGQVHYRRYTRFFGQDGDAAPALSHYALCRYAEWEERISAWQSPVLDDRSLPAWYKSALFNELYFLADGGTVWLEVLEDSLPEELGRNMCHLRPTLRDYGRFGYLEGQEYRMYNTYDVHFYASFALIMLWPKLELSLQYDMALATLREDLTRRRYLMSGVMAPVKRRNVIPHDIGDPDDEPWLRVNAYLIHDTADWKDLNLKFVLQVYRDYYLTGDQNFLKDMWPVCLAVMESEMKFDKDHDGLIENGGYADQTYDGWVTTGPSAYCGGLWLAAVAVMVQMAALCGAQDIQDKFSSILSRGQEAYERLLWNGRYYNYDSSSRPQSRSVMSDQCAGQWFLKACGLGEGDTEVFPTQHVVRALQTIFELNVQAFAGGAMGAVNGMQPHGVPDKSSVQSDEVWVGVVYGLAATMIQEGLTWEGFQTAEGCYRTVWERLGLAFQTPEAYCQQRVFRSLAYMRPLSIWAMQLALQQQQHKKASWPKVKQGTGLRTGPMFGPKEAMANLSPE
Kind of assay: intact cells treated, residual activity in lysate with 4MU-glucoside. An excerpt: intact cells treated, residual activity in lysate with 4MU-glucoside on GBA2 (nonlysosomal glucosylceramidase)

For assay [4], the target named is T4, GBA (HEK293T cells) (Homo sapiens, UniProt P04062).
T4 construct: gene GBA1; endogenous lysosomal enzyme in HEK293T cells that stably express human GBA2; 58-66 kDa on gel
T4 sequence (P04062 40-536): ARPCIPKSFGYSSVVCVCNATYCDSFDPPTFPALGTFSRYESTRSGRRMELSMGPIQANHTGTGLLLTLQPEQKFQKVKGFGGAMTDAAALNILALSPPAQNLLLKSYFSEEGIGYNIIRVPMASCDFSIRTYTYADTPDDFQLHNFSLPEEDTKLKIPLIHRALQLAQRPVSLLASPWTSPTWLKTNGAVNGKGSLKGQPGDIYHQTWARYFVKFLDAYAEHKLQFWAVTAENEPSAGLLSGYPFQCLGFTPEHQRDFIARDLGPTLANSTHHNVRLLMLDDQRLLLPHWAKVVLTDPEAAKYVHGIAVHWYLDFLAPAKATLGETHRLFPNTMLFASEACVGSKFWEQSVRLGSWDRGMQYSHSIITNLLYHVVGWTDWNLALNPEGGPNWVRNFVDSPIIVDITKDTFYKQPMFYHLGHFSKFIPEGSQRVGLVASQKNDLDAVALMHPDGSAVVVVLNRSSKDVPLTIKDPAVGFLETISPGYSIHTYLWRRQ
The description is as above. The following applies: covalent, 24 h treatment of intact HEK293T cells, assay pH 5.2 with 25 nM AMP-DNM to block GBA2. The text has this:
intact cells treated, residual activity in lysate with 4MU-glucoside on GBA (HEK293T cells)

Like-named read-outs stand apart in the source and are kept apart here. A value given as a limit tells only on which side of the number the result lay.

For `OC1C(O)C(O)C2OC2C1O` (centres unmarked) [compound 1, conduritol B epoxide], the IC50 in assay [1] (covalent, read-out: CBE / Enz. assay) was found to be 309 µM; in assay [2] (read-out: CBE / Enz. assay) it was 474 µM; in assay [3] (read-out: CBE / Enz. assay), 272 µM; in assay [4] (read-out: CBE / Enz. assay), 0.331 µM.
With `OC[C@@H]1[C@@H](O)[C@H](O)[C@@H](O)[C@@H]2O[C@H]12` [compound 2, cyclophellitol], the IC50 in assay [1] (read-out: CP / Enz. assay) was greater than 10 µM; in assay [2] (read-out: CP / Enz. assay), greater than 10 µM; in assay [3] (read-out: CP / Enz. assay) it was 0.198 µM; in assay [4] (read-out: CP / Enz. assay), 0.086 µM.
